How the values were obtained:
D(1A) dopamine receptor = D(1A) dopamine receptor (Homo sapiens, UniProt P21728)
[1] = target: Beta-3 adrenergic receptor (Homo sapiens, UniProt P13945)
[2] = target: Voltage-dependent N-type calcium channel subunit alpha-1B (Rattus norvegicus, UniProt Q02294); assay type: functional
[3] = target: 5-hydroxytryptamine receptor 2B (Homo sapiens, UniProt P41595)
Melanocortin receptor 4 = Melanocortin receptor 4 (Homo sapiens, UniProt P32245)
Glucocorticoid receptor = target: T1, Glucocorticoid receptor (Homo sapiens, UniProt P04150)
T1 sequence (P04150 whole entry): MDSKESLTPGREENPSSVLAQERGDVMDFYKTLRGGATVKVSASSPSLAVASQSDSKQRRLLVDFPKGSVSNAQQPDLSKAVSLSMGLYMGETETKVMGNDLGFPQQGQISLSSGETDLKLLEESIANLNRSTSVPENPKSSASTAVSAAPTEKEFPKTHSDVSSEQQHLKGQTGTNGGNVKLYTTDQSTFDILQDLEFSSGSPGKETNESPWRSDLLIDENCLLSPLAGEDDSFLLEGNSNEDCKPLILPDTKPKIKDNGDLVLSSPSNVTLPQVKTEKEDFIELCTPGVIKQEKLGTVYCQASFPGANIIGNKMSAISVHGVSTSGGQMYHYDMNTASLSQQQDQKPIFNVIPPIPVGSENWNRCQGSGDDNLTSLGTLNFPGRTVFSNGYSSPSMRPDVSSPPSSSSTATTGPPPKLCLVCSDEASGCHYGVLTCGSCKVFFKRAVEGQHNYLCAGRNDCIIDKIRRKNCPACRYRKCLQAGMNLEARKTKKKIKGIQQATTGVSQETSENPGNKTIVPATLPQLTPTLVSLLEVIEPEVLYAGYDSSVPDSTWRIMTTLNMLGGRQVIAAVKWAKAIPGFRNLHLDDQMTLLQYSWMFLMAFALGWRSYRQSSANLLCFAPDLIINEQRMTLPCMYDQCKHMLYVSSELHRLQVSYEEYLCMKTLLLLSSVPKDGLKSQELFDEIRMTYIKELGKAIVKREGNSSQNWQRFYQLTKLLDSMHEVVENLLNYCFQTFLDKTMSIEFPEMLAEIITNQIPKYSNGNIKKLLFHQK

Thromboxane A2 receptor = target: T2, Thromboxane A2 receptor (Homo sapiens, UniProt P21731)
T2 sequence (P21731 whole entry): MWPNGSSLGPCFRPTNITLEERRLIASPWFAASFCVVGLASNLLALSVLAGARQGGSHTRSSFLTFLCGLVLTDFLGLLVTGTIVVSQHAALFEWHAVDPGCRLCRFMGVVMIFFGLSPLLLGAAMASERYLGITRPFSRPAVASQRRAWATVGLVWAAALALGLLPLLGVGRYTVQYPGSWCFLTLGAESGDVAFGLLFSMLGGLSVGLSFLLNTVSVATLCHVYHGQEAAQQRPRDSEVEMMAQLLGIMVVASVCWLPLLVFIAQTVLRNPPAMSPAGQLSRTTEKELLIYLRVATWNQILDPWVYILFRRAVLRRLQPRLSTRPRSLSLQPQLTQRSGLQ

[4] = target: T3, 5-hydroxytryptamine receptor 1A (Homo sapiens, UniProt P08908)
T3 sequence (P08908 whole entry): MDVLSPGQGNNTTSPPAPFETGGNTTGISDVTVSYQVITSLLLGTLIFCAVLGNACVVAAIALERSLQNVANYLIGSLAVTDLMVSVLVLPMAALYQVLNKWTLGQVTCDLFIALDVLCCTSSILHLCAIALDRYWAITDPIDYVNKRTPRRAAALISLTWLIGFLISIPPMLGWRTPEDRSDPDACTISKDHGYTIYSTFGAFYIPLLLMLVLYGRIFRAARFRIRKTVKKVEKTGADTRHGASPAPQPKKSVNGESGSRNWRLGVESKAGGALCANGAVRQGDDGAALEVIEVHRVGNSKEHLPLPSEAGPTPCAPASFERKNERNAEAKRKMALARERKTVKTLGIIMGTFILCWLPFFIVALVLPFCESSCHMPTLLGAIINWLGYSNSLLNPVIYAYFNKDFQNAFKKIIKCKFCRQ

[5] = target: Sodium-dependent serotonin transporter (Homo sapiens, UniProt P31645)
[6] = target: T4, Gamma-aminobutyric acid receptor subunit alpha-1/alpha-2/beta-2/gamma-2 (Homo sapiens, UniProt P14867+P18507+P47869+P47870); assay type: functional, cell-based
[7] = target: T4, Gamma-aminobutyric acid receptor subunit alpha-1/alpha-2/beta-2/gamma-2; assay type: functional, cell-based; remark: listed apart in the source
Histamine H1 receptor = Histamine H1 receptor (Homo sapiens, UniProt P35367); assay type: functional, cell-based
[8] = target: T5, Peroxisome proliferator-activated receptor gamma (Homo sapiens, UniProt P37231); assay type: functional
T5 sequence (P37231 whole entry): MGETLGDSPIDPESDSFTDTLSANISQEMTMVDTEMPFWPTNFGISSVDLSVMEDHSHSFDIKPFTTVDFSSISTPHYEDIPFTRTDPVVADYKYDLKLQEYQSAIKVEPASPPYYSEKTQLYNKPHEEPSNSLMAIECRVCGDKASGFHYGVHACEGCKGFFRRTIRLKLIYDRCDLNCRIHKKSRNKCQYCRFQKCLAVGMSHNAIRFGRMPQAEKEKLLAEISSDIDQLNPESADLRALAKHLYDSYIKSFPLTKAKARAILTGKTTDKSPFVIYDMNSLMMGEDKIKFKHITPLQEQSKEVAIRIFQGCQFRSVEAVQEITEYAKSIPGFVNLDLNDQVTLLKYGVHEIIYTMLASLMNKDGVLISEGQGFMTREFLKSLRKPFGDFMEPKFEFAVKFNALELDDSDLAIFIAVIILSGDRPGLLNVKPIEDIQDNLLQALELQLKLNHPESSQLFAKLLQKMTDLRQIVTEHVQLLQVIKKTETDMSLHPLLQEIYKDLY
Note: assay procedure not described here.

D(1A) dopamine receptor, sequence (P21728 whole entry): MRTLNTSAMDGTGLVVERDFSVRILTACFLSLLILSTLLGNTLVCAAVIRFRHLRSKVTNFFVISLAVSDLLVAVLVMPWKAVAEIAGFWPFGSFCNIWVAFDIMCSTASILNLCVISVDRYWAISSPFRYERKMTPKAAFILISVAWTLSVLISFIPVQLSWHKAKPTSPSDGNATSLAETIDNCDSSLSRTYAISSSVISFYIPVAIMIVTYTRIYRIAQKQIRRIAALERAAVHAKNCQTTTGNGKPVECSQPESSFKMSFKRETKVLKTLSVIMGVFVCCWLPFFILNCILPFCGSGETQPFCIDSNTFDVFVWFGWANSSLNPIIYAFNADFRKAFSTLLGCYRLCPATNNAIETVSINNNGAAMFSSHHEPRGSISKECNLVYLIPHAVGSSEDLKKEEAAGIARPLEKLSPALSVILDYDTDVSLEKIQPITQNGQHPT
Voltage-dependent N-type calcium channel subunit alpha-1B, sequence (Q02294 whole entry): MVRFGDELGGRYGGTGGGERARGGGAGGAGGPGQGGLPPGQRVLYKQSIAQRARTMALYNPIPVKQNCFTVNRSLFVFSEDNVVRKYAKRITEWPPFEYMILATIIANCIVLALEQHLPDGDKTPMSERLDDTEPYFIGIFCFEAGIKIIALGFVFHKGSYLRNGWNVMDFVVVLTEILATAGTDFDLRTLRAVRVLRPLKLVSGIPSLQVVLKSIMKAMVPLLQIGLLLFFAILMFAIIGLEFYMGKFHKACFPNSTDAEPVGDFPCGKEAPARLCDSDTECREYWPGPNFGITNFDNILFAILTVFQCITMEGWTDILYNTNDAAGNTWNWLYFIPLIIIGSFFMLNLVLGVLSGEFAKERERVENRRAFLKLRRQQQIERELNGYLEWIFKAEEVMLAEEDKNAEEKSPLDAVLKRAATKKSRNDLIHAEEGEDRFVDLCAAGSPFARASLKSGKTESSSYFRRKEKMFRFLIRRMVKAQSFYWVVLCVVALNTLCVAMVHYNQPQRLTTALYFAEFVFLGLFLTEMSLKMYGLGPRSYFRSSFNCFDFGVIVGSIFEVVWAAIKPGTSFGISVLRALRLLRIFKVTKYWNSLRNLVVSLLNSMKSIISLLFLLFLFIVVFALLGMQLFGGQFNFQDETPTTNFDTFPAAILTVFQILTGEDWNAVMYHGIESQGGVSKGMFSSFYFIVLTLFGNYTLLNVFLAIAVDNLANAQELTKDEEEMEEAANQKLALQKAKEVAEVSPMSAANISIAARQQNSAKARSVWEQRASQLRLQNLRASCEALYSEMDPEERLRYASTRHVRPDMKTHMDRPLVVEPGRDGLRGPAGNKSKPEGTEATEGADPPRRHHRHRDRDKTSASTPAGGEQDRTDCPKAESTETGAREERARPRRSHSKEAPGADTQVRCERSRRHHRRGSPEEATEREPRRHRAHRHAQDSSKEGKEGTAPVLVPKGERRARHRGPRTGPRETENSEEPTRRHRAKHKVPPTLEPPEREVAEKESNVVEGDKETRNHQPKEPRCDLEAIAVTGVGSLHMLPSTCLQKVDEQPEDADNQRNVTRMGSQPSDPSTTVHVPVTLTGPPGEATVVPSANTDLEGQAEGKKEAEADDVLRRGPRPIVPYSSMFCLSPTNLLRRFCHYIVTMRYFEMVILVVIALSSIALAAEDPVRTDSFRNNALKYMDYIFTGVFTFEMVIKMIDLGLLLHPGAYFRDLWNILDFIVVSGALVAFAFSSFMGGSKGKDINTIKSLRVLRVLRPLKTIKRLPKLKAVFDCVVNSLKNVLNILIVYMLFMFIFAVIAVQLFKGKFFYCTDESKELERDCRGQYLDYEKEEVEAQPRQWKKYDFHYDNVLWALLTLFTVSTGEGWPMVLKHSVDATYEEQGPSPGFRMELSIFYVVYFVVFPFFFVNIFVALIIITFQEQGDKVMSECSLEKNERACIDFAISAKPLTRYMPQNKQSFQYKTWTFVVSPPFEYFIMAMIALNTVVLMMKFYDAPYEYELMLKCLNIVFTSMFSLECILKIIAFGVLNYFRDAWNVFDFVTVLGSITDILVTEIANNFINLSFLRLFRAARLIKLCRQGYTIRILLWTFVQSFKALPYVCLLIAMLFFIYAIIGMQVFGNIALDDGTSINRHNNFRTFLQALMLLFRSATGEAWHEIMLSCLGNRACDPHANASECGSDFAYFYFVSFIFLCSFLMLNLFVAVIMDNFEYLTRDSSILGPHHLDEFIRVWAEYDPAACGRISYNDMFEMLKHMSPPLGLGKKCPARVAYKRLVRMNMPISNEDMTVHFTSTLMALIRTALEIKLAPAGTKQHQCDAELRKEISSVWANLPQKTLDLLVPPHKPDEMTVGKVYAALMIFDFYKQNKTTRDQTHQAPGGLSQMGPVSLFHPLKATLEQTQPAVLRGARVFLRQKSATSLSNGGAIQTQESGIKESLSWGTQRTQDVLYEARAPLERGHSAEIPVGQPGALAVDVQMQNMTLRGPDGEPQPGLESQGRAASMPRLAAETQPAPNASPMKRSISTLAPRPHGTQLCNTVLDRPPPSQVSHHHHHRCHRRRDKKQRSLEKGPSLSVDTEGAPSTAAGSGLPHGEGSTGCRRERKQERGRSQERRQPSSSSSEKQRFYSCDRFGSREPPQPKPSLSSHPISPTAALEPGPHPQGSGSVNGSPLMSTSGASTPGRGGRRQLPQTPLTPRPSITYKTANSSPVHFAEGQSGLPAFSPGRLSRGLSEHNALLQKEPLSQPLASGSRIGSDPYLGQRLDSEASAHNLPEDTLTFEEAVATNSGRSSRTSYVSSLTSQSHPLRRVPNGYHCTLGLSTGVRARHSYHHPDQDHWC
Beta-3 adrenergic receptor, sequence (P13945 whole entry): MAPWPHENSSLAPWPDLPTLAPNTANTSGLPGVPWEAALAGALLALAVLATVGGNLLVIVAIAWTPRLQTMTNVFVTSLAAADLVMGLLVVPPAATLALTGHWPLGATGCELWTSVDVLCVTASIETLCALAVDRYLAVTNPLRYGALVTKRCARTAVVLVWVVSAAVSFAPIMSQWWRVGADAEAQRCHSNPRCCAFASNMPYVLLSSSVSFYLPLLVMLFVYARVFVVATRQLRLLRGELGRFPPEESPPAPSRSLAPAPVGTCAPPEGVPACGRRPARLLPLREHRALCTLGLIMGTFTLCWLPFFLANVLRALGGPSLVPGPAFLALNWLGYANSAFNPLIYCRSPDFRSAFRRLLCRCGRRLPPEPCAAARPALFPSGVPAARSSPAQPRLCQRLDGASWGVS
Melanocortin receptor 4, sequence (P32245 whole entry): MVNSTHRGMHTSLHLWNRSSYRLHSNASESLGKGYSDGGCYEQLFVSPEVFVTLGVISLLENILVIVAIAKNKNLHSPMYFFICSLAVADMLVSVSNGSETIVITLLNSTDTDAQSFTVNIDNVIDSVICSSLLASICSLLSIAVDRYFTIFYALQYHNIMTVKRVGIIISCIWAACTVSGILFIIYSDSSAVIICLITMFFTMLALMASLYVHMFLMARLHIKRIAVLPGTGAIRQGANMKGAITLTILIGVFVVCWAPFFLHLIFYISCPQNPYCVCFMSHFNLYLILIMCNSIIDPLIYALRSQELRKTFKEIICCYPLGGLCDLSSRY
5-hydroxytryptamine receptor 2B, sequence (P41595 whole entry): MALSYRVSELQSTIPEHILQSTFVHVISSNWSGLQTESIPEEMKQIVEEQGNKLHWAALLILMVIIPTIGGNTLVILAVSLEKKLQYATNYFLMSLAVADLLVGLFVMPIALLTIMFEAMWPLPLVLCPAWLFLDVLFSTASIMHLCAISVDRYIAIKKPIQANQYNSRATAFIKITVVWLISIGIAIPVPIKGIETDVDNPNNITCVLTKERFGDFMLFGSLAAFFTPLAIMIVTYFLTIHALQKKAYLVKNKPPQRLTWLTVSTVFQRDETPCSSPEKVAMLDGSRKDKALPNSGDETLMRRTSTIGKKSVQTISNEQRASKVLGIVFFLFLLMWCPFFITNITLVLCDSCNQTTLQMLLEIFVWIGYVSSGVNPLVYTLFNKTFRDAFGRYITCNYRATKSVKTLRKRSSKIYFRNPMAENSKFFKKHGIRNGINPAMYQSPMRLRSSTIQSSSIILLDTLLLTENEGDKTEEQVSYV
Sodium-dependent serotonin transporter, sequence (P31645 whole entry): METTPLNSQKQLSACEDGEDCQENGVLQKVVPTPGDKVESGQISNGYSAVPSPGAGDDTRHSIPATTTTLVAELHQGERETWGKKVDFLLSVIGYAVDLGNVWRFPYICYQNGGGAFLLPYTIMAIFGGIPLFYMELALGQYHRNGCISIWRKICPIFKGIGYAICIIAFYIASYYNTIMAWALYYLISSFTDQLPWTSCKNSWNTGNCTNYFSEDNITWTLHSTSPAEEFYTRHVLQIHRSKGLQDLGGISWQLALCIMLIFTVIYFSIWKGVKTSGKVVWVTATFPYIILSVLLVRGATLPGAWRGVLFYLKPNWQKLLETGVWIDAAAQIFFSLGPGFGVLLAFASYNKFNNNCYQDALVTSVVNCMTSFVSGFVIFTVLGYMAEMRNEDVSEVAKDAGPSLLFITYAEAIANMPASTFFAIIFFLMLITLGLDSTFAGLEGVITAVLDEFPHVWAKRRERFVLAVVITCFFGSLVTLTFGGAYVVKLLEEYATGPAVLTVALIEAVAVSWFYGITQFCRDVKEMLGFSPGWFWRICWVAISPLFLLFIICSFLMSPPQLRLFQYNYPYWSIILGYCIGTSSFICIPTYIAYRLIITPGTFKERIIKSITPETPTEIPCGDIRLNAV

## C[C@@H](O)[C@H]1C(=O)N2C(C(=O)O)=C(S[C@@H]3CN[C@H](C(=O)Nc4cccc(C(=O)O)c4)C3)[C@H](C)[C@H]12
D(1A) dopamine receptor
  AC50: > 30 µM

## CC(=O)OC1CN2CCC1CC2 (stereo not given) [ACECLIDINE]
D(1A) dopamine receptor
  AC50: > 30 µM

## N=C(N)NC(=O)c1nc(Cl)c(N)nc1N [AMILORIDE]
[1]
  AC50: > 30 µM
[2]
  AC50: > 10 µM
[3]
  AC50: 5.63 µM
Melanocortin receptor 4
  AC50: > 30 µM
Glucocorticoid receptor
  AC50: > 30 µM
Thromboxane A2 receptor
  AC50: > 30 µM
[4]
  AC50: > 10 µM

## CC(=O)Nc1ccc(/C=N/NC(N)=S)cc1 [AMITHIOZONE]
D(1A) dopamine receptor
  AC50: > 30 µM

## COc1ccc(-c2cc(=S)ss2)cc1 [ANETHOLTRITHION]
Glucocorticoid receptor
  AC50: > 30 µM
Thromboxane A2 receptor
  AC50: 16 µM
[5]
  AC50: > 10 µM

## CC(C)(C)NCC(O)COc1ccccc1C#N (stereo not given) [BUNITROLOL]
[6]
  AC50: > 30 µM
[7]
  AC50: > 30 µM

## C[C@]12CCC(=O)C=C1C=C[C@@H]1[C@@H]2CC[C@@]2(C)[C@H]1CC[C@@]21CCC(=O)O1 [CANRENONE]
Glucocorticoid receptor
  AC50: 1.3 µM
Thromboxane A2 receptor
  AC50: > 30 µM
[5]
  AC50: > 30 µM

## CN(C)CCC(O)(c1ccccc1)c1ccccc1Cl (stereo not given) [CHLOPHEDIANOL]
Melanocortin receptor 4
  AC50: > 10 µM
Glucocorticoid receptor
  AC50: > 10 µM
Thromboxane A2 receptor
  AC50: > 10 µM
[5]
  AC50: > 10 µM

## C[C@]12C=CC(=O)C=C1C(Cl)=C[C@@H]1[C@@H]2[C@@H](O)C[C@@]2(C)[C@H]1CC[C@]2(O)C(=O)CO [CLOPREDNOL]
[7]
  AC50: > 30 µM
Histamine H1 receptor
  AC50: > 30 µM
Glucocorticoid receptor
  AC50: 0.032 µM
[8]
  AC50: > 30 µM
[5]
  AC50: > 30 µM

## COc1cccc2c1C(=O)c1c(O)c3c(c(O)c1C2=O)C[C@@](O)(C(=O)CO)C[C@@H]3O[C@H]1C[C@H](N)[C@H](O)[C@H](C)O1 [DOXORUBICIN]
[2]
  AC50: > 10 µM
Melanocortin receptor 4
  AC50: > 30 µM
Glucocorticoid receptor
  AC50: 2.59 µM
[8]
  AC50: > 30 µM
[4]
  AC50: > 10 µM

## C[C@]12CCC(=O)C=C1[C@@H]1C[C@@H]1[C@H]1[C@@H]3[C@@H]4C[C@@H]4[C@@]4(CCC(=O)O4)[C@@]3(C)CC[C@@H]12 [DROSPIRENONE]
[3]
  AC50: > 30 µM
Thromboxane A2 receptor
  AC50: > 30 µM
[5]
  AC50: > 30 µM

## CC(C)(Oc1ccc(Cl)cc1)C(=O)OCCOC(=O)c1cccnc1 [ETOFIBRATE]
Glucocorticoid receptor
  AC50: > 30 µM
[8]
  AC50: > 30 µM
Thromboxane A2 receptor
  AC50: > 30 µM
[5]
  AC50: > 30 µM

## CCn1c(=O)c2c(nc(/C=C/c3ccc(OC)c(OC)c3)n2C)n(CC)c1=O [ISTRADEFYLLINE]
Histamine H1 receptor
  AC50: > 30 µM

## CSCC[C@H](N)C(=O)O [METHIONINE]
D(1A) dopamine receptor
  AC50: > 30 µM

## COc1ccc(C(=O)c2ccccc2)c(O)c1 [OXYBENZONE]
[6]
  AC50: > 30 µM
[7]
  AC50: > 30 µM

## OC(CN1CCCCC1)c1cc(-c2ccccc2)on1 (stereo not given) [PERISOXAL]
D(1A) dopamine receptor
  AC50: > 30 µM

## C[C@]12C=CC(=O)C=C1CC[C@@H]1[C@@H]2[C@@H](O)C[C@@]2(C)[C@H]1CC[C@]2(O)C(=O)CO [PREDNISOLONE]
[1]
  AC50: > 30 µM
[2]
  AC50: > 10 µM
Melanocortin receptor 4
  AC50: > 30 µM
Thromboxane A2 receptor
  AC50: > 30 µM
[4]
  AC50: > 10 µM

## CCC(=O)c1ccc2c(c1)N(CC(C)N(C)C)c1ccccc1S2 (stereo not given) [PROPIOMAZINE]
Melanocortin receptor 4
  AC50: > 10 µM
Glucocorticoid receptor
  AC50: > 30 µM
Thromboxane A2 receptor
  AC50: > 10 µM
[5]
  AC50: > 10 µM

## CN(C)[C@@H]1C(O)=C(C(=O)NCN2CCCC2)C(=O)[C@@]2(O)C(O)=C3C(=O)c4c(O)cccc4[C@@](C)(O)[C@H]3C[C@@H]12 [ROLITETRACYCLINE]
Melanocortin receptor 4
  AC50: > 10 µM
Glucocorticoid receptor
  AC50: 25.8 µM
Thromboxane A2 receptor
  AC50: > 10 µM
[5]
  AC50: > 10 µM

## Cc1ccc(O)c([C@H](CCN(C(C)C)C(C)C)c2ccccc2)c1 [TOLTERODINE]
[1]
  AC50: > 30 µM
[2]
  AC50: > 10 µM
[3]
  AC50: > 10 µM
[5]
  AC50: > 10 µM
[4]
  AC50: > 10 µM

## CC1(C)O[C@@H]2C[C@H]3[C@@H]4CCC5=CC(=O)C=C[C@]5(C)[C@@]4(F)[C@@H](O)C[C@]3(C)[C@]2(C(=O)CO)O1 [TRIAMCINOLONE ACETONIDE]
Glucocorticoid receptor
  AC50: 0.0031 µM
Thromboxane A2 receptor
  AC50: > 30 µM

## Oc1cc(Cl)ccc1Oc1ccc(Cl)cc1Cl [TRICLOSAN]
[6]
  AC50: > 30 µM
[7]
  AC50: > 30 µM
Histamine H1 receptor
  AC50: > 30 µM
Glucocorticoid receptor
  AC50: > 30 µM
Thromboxane A2 receptor
  AC50: 21 µM
[5]
  AC50: > 30 µM
